The values below come from patent US10723699B2 (Hyundai Pharm Co., Ltd., priority 2015, dated 2020).

A word on the EC50: it is the concentration at which the effect is half-maximal. As usually defined, the inhibition is the share of the control response that was lost under treatment.

The structures appear in SMILES notation. “Also recorded” adds a separate entry of the source. Like-named read-outs stand apart in the source and are kept apart here.

Data set [1] deals with diet-induced obesity (DIO) rat model. The data set is described as follows: Changes in weights in diet-induced obesity (DIO) rat model, 4-week administration. Format: in vivo, Sprague Dawley (SD) rats. The note with it: 5 mg/kg oral, 4 weeks. The procedure: To simultaneously evaluate both the weight-loss and hypoglycemic effects of the cyclohexene derivative according to the present invention, experiments were carried out, as follows.
Specifically, male Sprague Dawley (SD) rats (approximately 4 weeks old) in a diet-induced obesity model were fed with a high-fat diet (Lab. Diet Co.) for approximately 10 weeks to induce high-fat diet-induced obesity (DIO). The rats undergoing the high-fat diet were randomly selected, and divided into groups (n=8) for respective administrations. The compounds of Comparative Examples 3 and 4 and Examples 48 and 119 were administered to the divided DIO rats each group for 4 weeks.
The weights of the DIO rats were measured twice a week during a period of administration of 4 weeks to record a change in the weights. At the end of the 4-week period of administration, a hypoglycemic effect was evaluated using an oral glucose tolerance test (OGTT), as follows.

The target of data set [2] is T1, G protein-coupled receptor 119 (GPR-119) (Mesocricetus auratus, UniProt A0A1U8CD06).
T1 construct: hamster-derived β-cells containing G protein-coupled receptor 119 (GPR-119), HIT-T15 cells; host or cells: HIT-T15 (hamster pancreatic β-cells)
T1 sequence (A0A1U8CD06 1-334): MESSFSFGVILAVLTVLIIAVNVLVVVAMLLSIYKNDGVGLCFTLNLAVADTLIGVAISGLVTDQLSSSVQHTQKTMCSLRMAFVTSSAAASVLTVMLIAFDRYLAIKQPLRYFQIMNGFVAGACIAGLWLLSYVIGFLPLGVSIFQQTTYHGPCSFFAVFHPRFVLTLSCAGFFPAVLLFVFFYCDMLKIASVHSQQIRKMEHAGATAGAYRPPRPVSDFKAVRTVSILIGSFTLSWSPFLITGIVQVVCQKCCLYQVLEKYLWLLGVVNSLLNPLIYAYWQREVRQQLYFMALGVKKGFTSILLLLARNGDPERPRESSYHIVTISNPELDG
The data set is described as follows: cAMP activity in HIT-T15 cells (cAMP dynamic kit, FRET). The class given is cell-based, hamster. The procedure, abridged: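 Hamster HIT-T15 cells (60,000/well) were treated next day with compound at six concentrations, 0.0032–10 μM, for 1 h at 37° C. Cells were then lysed and cAMP measured by competitive HTRF immunoassay (D2-cAMP, cryptate anti-cAMP). Activity was derived as the change in FRET signal relative to DMSO.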

The target of the next data set is T2, CYP2D6 (Homo sapiens, UniProt P10635).
T2 construct: purchased Invitrogen P2862
The data set is described as follows: CYP inhibition assay (Invitrogen P2862 kit). The class given is in vitro ADME. From the text: (§1) CYP enzymes play a major role in the metabolism of drugs. Depending on the inhibition activity of the CYP enzymes, the dose of the drugs and toxicity due to the co-administration of other drugs can be predicted. Therefore, we have measured the inhibitory activity for CYP3A4, CYP2C9, CYP1A2, CYP2D6 and CYP2C19 enzymes present in the body using the compounds of the present invention. Invitrogen P2862 kit was used for CYP2D6 inhibition assay, and BD GENTEST (459100, 459300, 459400, 459500) kits were used for CYP1A2, CYP2C9, CYP2C19 and CYP3A4 inhibition assay. In case of Invitrogen kit, the test materials were diluted in distilled water into 2.5× of the final test concentration.
P450 BACULOSOMES® reagent and regeneration device (100×) provided by the Invitrogen kit were diluted in the Vivid® reaction buffer (2×) into the appropriate concentration for the type of CYP450. After mixing 80 μl of the 2.5× test material and 100 μl of the mixture of the diluted P450 BACULOSOMES® reagent in U-bottom 96-well plate, the resulting mixture was pre-incubated for 20 minutes. Vivid® CYP450 substrate and NADP+ (100×) were diluted in the Vivid® CYP450 reaction buffer (2×) into the appropriate concentration for the types of CYP450 and the substrates. After completion of the pre-incubation, 20/l of the substrate-NADP (nicotinamide adenine dinucleotide phosphate) mixture was added, and then incubated for 1 hour. After completion of the reaction, the reactants were transferred to the white plates, and fluorescence values were measured using a micro-plate reader (Excitation and absorption wavelengths of CYP2D6 were 400 nm and 502 nm, respectively).
(§2) The measured values were converted into the inhibition percent of the test materials as compared to the value of the untreated control, and the results were summarized in Table 5.

A further data set concerns the target T3, CYP3A4 (Homo sapiens, UniProt P08684).
T3 construct: purchased BD GENTEST 459500
Kind of data set: CYP inhibition assay (BD GENTEST kit). Format: in vitro ADME. The following applies: human, CYP3A4 enzyme/substrate mixture of BD GENTEST kit, pH 7.4, 10 μM; read-out: CYP inhibition (% at 10 μM) 3A4.
Text: as §1
(§3) In case of BD GENTEST kit, the test materials were diluted in acetonitrile into 50× of the final test concentration. NADPH-cofactor mixture containing cofactor, G6PDH and control protein was prepared in distilled water as per manufacturer's instruction. 4 μl of 50× test materials and 96 μl of NADPH-cofactor mixture were mixed in U-bottom 96-well plate, and the resulting mixture were pre-incubated at 37° C. for 10 minutes. Predetermined concentrations of enzyme/substrate mixture were prepared in distilled water using buffer (0.5M potassium phosphate, pH 7.4) and each of CYP450 enzyme/substrate mixture provided in the kit for the types of CYP450. To the pre-incubated plate, 100 μl of enzyme/substrate mixture was added, and then incubated at 37° C. for 15 minutes (CYP1A2), 30 minutes (CYP3A4 and CYP2C19) or 1.5 hours (CYP2C9). After completion of the reaction, the reactants were transferred to the white plates, and fluorescent values were measured using a micro-plate reader (Excitation and absorption wavelengths of CYP1A2 and CYP2C19 were 410 nm and 460 nm, respectively; and excitation and absorption wavelengths of CYP2C9 and CYP3A4 were 409 nm and 530 nm, respectively).
as §2

In another data set the target is T4, CYP1A2 (Homo sapiens, UniProt P05177).
T4 construct: purchased BD GENTEST 459100
T4 sequence (P05177 1-516): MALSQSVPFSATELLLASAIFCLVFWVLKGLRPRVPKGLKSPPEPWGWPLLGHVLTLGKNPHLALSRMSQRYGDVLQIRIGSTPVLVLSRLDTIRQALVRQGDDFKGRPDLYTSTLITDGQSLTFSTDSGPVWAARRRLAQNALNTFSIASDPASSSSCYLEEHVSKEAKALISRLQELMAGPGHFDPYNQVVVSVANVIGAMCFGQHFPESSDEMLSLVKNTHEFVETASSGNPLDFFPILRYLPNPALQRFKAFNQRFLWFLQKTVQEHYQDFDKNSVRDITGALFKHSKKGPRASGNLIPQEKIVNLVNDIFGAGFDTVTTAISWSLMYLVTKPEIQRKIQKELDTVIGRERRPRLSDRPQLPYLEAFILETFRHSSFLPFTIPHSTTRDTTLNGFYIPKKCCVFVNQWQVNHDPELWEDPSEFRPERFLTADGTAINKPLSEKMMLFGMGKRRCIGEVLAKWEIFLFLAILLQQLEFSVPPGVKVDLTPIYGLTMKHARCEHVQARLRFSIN
Kind of data set: CYP inhibition assay (BD GENTEST kit). Format: in vitro ADME.
Text: as §1, §3, §2

A further data set addresses T5, CYP2C19 (Homo sapiens, UniProt P33261).
T5 construct: purchased BD GENTEST 459400
Kind of data set: CYP inhibition assay (BD GENTEST kit). The following applies: human, CYP2C19 enzyme/substrate mixture of BD GENTEST kit, pH 7.4, 10 μM; read-out: CYP inhibition (% at 10 μM) 2C19. The class given is in vitro ADME.
Text: as §1, §3, §2

Another data set has as its target T6, CYP2C9 (Homo sapiens, UniProt P11712).
T6 construct: purchased BD GENTEST 459300
Kind of data set: CYP inhibition assay (BD GENTEST kit). The class given is in vitro ADME.
Text: as §1, §3, §2

The mark [3] stands for this setting: 1 hour at 37° C., six concentrations 0.0032 to 10 μM, read-out: EC50.

T3 sequence (P08684 whole entry): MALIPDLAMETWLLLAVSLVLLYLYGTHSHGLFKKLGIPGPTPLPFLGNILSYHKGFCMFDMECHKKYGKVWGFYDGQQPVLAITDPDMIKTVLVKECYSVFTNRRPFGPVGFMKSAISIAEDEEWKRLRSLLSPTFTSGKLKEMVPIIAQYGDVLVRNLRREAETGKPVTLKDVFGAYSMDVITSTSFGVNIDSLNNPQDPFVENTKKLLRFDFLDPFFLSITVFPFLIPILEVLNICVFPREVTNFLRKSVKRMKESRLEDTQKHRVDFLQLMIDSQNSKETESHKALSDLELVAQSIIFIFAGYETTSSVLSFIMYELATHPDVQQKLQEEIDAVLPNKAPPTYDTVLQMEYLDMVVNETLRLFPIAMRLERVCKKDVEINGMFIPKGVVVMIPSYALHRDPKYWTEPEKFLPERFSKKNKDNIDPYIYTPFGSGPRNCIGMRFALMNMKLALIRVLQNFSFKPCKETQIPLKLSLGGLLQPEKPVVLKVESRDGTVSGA
T2 sequence (P10635 whole entry): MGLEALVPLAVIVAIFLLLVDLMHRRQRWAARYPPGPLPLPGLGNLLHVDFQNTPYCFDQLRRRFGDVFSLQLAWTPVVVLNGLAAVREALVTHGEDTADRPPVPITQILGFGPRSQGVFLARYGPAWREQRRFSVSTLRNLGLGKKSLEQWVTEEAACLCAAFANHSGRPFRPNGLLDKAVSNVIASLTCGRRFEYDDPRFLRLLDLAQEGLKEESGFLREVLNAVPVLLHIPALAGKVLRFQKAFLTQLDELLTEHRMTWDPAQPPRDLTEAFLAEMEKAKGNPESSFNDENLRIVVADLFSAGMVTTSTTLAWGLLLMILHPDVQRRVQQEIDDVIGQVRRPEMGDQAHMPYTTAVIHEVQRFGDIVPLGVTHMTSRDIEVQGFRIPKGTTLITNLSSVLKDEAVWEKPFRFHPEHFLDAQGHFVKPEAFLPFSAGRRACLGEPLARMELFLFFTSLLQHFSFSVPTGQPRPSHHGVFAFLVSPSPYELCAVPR
T5 sequence (P33261 whole entry): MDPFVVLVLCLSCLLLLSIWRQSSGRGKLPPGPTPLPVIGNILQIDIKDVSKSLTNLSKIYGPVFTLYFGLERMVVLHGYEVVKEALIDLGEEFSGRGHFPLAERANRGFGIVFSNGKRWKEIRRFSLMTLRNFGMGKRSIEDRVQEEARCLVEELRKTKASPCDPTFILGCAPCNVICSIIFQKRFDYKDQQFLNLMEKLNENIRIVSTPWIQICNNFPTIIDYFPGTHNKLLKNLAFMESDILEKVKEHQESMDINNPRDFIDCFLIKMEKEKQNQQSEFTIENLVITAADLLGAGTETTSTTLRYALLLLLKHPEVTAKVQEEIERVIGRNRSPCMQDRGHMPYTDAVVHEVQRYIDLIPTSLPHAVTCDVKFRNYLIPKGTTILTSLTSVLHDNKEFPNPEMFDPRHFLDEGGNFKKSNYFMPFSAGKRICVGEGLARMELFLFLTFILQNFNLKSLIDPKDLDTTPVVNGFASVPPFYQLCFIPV
T6 sequence (P11712 whole entry): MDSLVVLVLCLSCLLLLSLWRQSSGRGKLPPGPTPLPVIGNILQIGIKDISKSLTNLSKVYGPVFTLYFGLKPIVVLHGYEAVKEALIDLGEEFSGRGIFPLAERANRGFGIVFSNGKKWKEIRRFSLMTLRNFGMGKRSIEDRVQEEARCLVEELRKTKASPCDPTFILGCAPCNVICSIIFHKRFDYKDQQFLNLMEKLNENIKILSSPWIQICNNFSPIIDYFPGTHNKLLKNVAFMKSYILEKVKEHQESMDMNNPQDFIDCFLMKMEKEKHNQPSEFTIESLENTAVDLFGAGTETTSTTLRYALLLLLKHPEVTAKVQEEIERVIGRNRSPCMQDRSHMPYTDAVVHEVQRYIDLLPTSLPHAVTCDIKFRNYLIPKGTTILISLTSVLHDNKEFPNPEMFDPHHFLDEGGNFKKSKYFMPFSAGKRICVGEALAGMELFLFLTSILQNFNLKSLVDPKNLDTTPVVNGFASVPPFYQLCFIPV

As to `CC(C)CC(N(C)C)C1(c2ccc(Cl)cc2)CCC1` (stereo not drawn) [Comparative Example 4, Sibutramine], the “changes in weights of rats (weight-loss effect)” value in data set [1] is listed as “weight loss was observed for 2 weeks; also recorded: the weight rather increased after 2 weeks”.

As for `CCc1cnc(N2CCC(COc3ccc(C4=CCC(C(=O)N5CCC[C@@H]5CO)CC4)cc3)CC2)nc1` (single isomer, unassigned; (+)) [Example 290], the EC50 in data set [2] (setting [3]) was 3.8 nM; in data set [2] (Table 2, read-out: EC50 value), at most 50 nM. Further, the “CYP inhibition (% at 10 μM) 2D6” value on CYP2D6 (10 µM) worked out at 48.97%. The inhibition at 30 min, 10 µM at CYP3A4 came to 33.1%; at CYP2C19, 44.9%. Besides, the “CYP inhibition (% at 10 μM) 1A2” value at CYP1A2 (10 μM) amounted to 3.82%. Further, the “CYP inhibition (% at 10 μM) 2C9” value on CYP2C9 (10 μM) is listed as 23.97%.

In the case of `CCc1cnc(N2CCC(COc3ccc(C4=CCC(C(=O)N5CCC[C@@H]5CO)CC4)cc3)CC2)nc1` (stereo partly drawn) [Example 118, (4-(4-((1-(5-ethylpyrimidin-2-yl)piperidin-4-yl)methoxy)phenyl)cyclohex-3-enyl)((R)-2-(hydroxymethyl)pyrrolidin-1-yl)methanone], the inhibition at 1 h, 10 µM on CYP2D6 (human, CYP2D6 P450 BACULOSOMES (Invitrogen P2862 kit), probe Vivid CYP450 substrate, read-out: CYP inhibition (% at 10 μM) 2D6) was determined as 9.42%. Besides, the inhibition at 30 min, 10 µM at CYP3A4 turned out to be 48.2%; at CYP2C19, 48.4%. The inhibition at 15 min, 10 µM on CYP1A2 (human, CYP1A2 enzyme/substrate mixture of BD GENTEST kit, pH 7.4, 10 μM, read-out: CYP inhibition (% at 10 μM) 1A2) amounted to 0%. For the same molecule, the inhibition at 1.5 h, 10 µM at CYP2C9 (human, CYP2C9 enzyme/substrate mixture of BD GENTEST kit, pH 7.4, 10 μM, read-out: CYP inhibition (% at 10 μM) 2C9) was determined as 29.8%.

As for `O=C(NCCO)C1CC=C(c2ccc(OCC3CCN(c4ncc(Br)cn4)CC3)cc2)CC1` (stereo not drawn) [Example 357, 4-(4-((1-(5-bromopyrimidin-2-yl)piperidin-4-yl)methoxy)phenyl)-N-(2-hydroxyethyl)cyclohex-3-enecarboxamide], the EC50 in data set [2] (setting [3]) worked out at 150 nM.

Take `CC(C)c1noc(N2CCC(COc3ccc(C4=CCC(C(=O)N5CCC5)CC4)cn3)CC2)n1` (stereo not drawn) [Example 339, azetidin-1-yl(4-(6-((1-(3-isopropyl-1,2,4-oxadiazol-5-yl)piperidin-4-yl)methoxy)pyridin-3-yl)cyclohex-3-enyl)methanone]: in data set [2] (setting [3]), the EC50 is 120 nM.

For the molecule `CCc1cnc(N2CCC(COc3ccc(C4=CCC(C(=O)N5CCCC5)CC4)cc3C#N)CC2)nc1` (stereo not drawn) [Example 386, 2-((1-(5-ethylpyrimidin-2-yl)piperidin-4-yl)methoxy)-5-(4-(pyrrolidine-1-carbonyl)cyclohex-1-enyl)benzonitrile], the concentration for a half-maximal effect (EC50) in data set [2] (setting [3]) was determined as 64 nM.

As for `CC(C)c1noc(N2CCC(COc3ccc(C4=CCC(C(=O)N5CCCC5)CC4)cn3)CC2)n1` (stereo not drawn) [Example 315, (4-(6-((1-(3-isopropyl-1,2,4-oxadiazol-5-yl)piperidin-4-yl)methoxy)pyridin-3-yl)cyclohex-3-enyl)(pyrrolidin-1-yl)methanone], the concentration for a half-maximal effect (EC50) in data set [2] (setting [3]) stood at 68 nM.

`CCc1cnc(N2CCC(COc3ccc(C4=CCC(C(=O)N5CCC(C#N)CC5)CC4)cc3C(F)(F)F)CC2)nc1` (stereo not drawn) [Example 398, 1-(4-(4-((1-(5-ethylpyrimidin-2-yl)piperidin-4-yl)methoxy)-3-(trifluoromethyl)phenyl)cyclohex-3-enecarbonyl)piperidine-4-carbonitrile]: the concentration for a half-maximal effect (EC50) in data set [2] (setting [3]) worked out at 110 nM.

As to `CC(C)c1noc(N2CCC(COc3ccc(C4=CCC(C(=O)N5CC(O)C5)CC4)cc3F)CC2)n1` (stereo not drawn) [Example 334, (4-(3-fluoro-4-((1-(3-isopropyl-1,2,4-oxadiazol-5-yl)piperidin-4-yl)methoxy)phenyl)cyclohex-3-enyl)(3-hydroxyazetidin-1-yl)methanone], the EC50 in data set [2] (setting [3]) turned out to be 52 nM.

In the case of `CCc1cnc(N2CCC(COc3ccc(C4=CCC(C(=O)N5CCC(C(F)(F)F)CC5)CC4)c(F)c3)CC2)nc1` (stereo not drawn) [Example 452, (4-(4-((1-(5-ethylpyrimidin-2-yl)piperidin-4-yl)methoxy)-2-fluorophenyl)cyclohex-3-enyl)(4-(trifluoromethyl)piperidin-1-yl)methanone], the EC50 in data set [2] (setting [3]) is 18 nM; in data set [2] (Table 2, read-out: EC50 value), at most 50 nM.
